Legend:
Type in all cases: physicochemical
[1] = Maximum absorption wavelength of the dye in N-methylpyrrolidone (UV-2550 spectrophotometer); details: for λmax: in N-methylpyrrolidone solvent
Experimental: <Maximum Absorption Wavelength>
The maximum absorption wavelength of the dye in N-methylpyrrolidone solvent was measured with a UV-2550 spectrophotometer (made by Shimadzu Corp.).

[2] = Light resistance of light absorption anisotropic film (change in intensity of absorption)
Experimental: While being heated from room temperature to 200° C., each of the light absorption anisotropic films that had been prepared was irradiated with 10 mW of light and the light resistance was determined based on the change in the intensity of absorption.

[3] = Solubility in chloroform / preparation of chloroform coating liquid
Experimental: The solubility of these compounds in chloroform was measured.
Following stirring and dissolution, a liquid-crystal composition coating liquid was obtained. Each of the coating liquids was then coated on an alignment film that had been formed on a glass substrate and had been rubbed. Subsequently, the chloroform was allowed to dry naturally at room temperature, yielding individual light absorption anisotropic films. The polyvinylalcohol indicated below was employed as the alignment film.

[4] = Phase transition temperature by DSC thermal analysis and polarizing microscope observation
Experimental: <Phase Transition Temperature>
The phase transition temperature was determined by thermal analysis with a DSC measurement apparatus (made by Seiko Instruments) and by visual observation with a polarizing microscope.

[5] = light absorption anisotropic film irradiated with 10 mW of light while heated from room temperature to 200° C., change in intensity of absorption

| SMILES | λmax [1] | Light resistance [2, 5] | further results |
| --- | --- | --- | --- |
| CCCCCCOc1ccc(N=Nc2ccc(C=Cc3cc(OCCOCCOCCOC)c(C=Cc4ccc(N=Nc5ccc(OCCCCCC)cc5)cc4)cc3OC)cc2)cc1 [A-3] | 463.3 nm | Good |  |
| CCCCCCOc1ccc(/C=C/c2ccc(/C=C/c3cc(OCCOCCOCCOCCOCCOCCO)c(/C=C/c4ccc(/C=C/c5ccc(OCCCCCC)cc5)cc4)cc3OC)cc2)cc1 [Comparative Compound 2, reference compound] |  | Poor | original absorption wavelength [1]: 432.5 nm; solubility in chloroform (in words) [3]: good solubility; Light resistance ([2]; film heated from room temperature to 200° C., irradiated with 10 mW of light): poor light resistance |
| CCCCCCOc1ccc(N=Nc2ccc(C=Cc3cc(OCCOCCOCCO)c(C=Cc4ccc(N=Nc5ccc(OCCCCCC)cc5)cc4)cc3OC)cc2)cc1 [A-4] | 463.8 nm | Good |  |
| CCCCCCOc1ccc(N=Nc2ccc(C=Cc3cc(OC)c(C=Cc4ccc(N=Nc5ccc(OCCCCCC)cc5)cc4)cc3OC)cc2)cc1 [A-34] | 463.4 nm |  | temperature range in which nematic liquid crystallinity was confirmed [4]: ≥ 247 °C |
| CCCCCCOc1ccc(N=Nc2ccc(C=Cc3cc(OCCOCCOCCOC)c(C=Cc4ccc(N=Nc5ccc(OCCCCCC)cc5)cc4)cc3OCCOCCOCCOC)cc2)cc1 [A-10] | 457.5 nm | Good |  |
| CCCCCCCCCCCCCCCCCCOc1cc(C=Cc2ccc(N=Nc3ccc(OCCCCCC)cc3)cc2)c(OC)cc1C=Cc1ccc(N=Nc2ccc(OCCCCCC)cc2)cc1 [A-9] | 460.0 nm | Good |  |
| CCCCc1ccc(N=Nc2ccc(N=Nc3ccc(N=Nc4ccc(N=Nc5ccc(N=Nc6ccc(CCCC)cc6)cc5)cc4C)c(C)c3)cc2)cc1 [Comparative Compound 1] |  |  | temperature range in which nematic liquid crystallinity was confirmed [4]: ≥ 220 °C; preparation of coating liquid ([3]; 1 weight part compound in 99 weight parts of chloroform): precluding preparation of a coating liquid; solubility in chloroform (in words) [3]: almost no solubility |

From patent publication US9011988B2, “Liquid-crystal compound, liquid-crystal composition, light absorption anisotropic film, and liquid-crystal display device” (Fujifilm Corporation, priority 2010, dated 2015)
